Data taken from patent US20140348749A1, “IDENTIFICATION AND TREATMENT OF TUMORS SENSITIVE TO GLUCOSE LIMITATION” (Whitehead Institute for Biomedical Research, priority 2013, published 2014).
Entries after “also recorded” stand apart in the source; their conditions may differ. Read-outs that look alike come from different tables or passages of the source.

How the values were obtained:
[1] = tested on: glucose limitation sensitive or resistant cell lines
Method: (§1) 250,000 cells then were attached to the plate by centrifugation at 2200 rpm without brakes for 5 min. For adherent cells, 40,000 to 80,000 cells were plated the night before the experiments. […] For spare respiratory capacity measurements, increasing FCCP concentrations (0.1, 0.5 and 2 uM) were used in order to assess maximum OCR of each cell line. For basal oxygen consumption measurements, cell number or protein concentration was used for normalization.
Metabolic responses of cell lines to mitochondrial uncoupling were analyzed by treating cells from a number of glucose limitation sensitive or resistant cell lines with the mitochondrial uncoupling agent FCCP and measuring OCR.

[2] = tested on: tumors from glucose limitation resistant cell line NCI-H82; assay: Metformin treatment of mice with established tumors; assay type: in vivo; settings: metformin 400 mg/kg, close to 3 weeks
Method: (§2) In vivo data was obtained initially using one cell line that is resistant to glucose limitation (NCI-H82) and one cell line that is sensitive to glucose limitation (NCI-H929). Mice harboring established tumors derived from these cell lines were treated with metformin (400 mg/kg) or vehicle (PBS) for close to 3 weeks and tumor size was measured. The tumor sizes were averaged for all tumors in that particular group at the end. […] Tumors from the sensitive line are on average half the size in mice treated with metformin than in mice treated with vehicle.

[3] = tested on: tumors from glucose limitation sensitive cell line NCI-H929; assay: as above; assay type: in vivo; settings: metformin 400 mg/kg, close to 3 weeks
Method: as §2

[4] = tested on: glucose limitation sensitive and glucose limitation resistant tumor cell lines; assay: Proliferation of tumor cell lines exposed to metformin under low glucose; assay type: cell-based
Method: We tested the sensitivity of a panel of glucose limitation sensitive and glucose limitation resistant tumor cell lines to treatment with metformin, a compound that inhibits OXPHOS at least in part by inhibiting complex 1. Cells were exposed to 2 mM metformin for 3 days.

[5] = tested on: panel of 8 cell lines with varying expression of CYC1 and UQCRC1; assay: Metformin sensitivity versus CYC1 and UQCRC1 expression in a panel of 8 cell lines; assay type: cell-based; settings: 1 mM glucose as low glucose condition
Method: We tested the hypothesis that expression of CYC1 and UQCRC1 could predict sensitivity to metformin under conditions in which glucose is limiting. […] 1 mM glucose was used as a low glucose condition in this experiment.

[6] = among tetracycline-class antibiotics; cited from earlier work
[7] = tested on: cell lines with mtDNA-encoded Complex I mutations or impaired glucose utilization
[8] = tested on: cells with mutations in Complex I; assay: Oxygen consumption rate (OCR) with phenformin, control or NDI1-expressing lines; assay type: cell-based
Method: as §1

[9] = tested on: xenografts of mtDNA mutant cells expressing NDI1; assay: Phenformin in drinking water, xenografts of NDI1-expressing cells; assay type: in vivo, mice
Method: (§3) Further in vivo experiments were conducted using additional tumor cell lines. Xenografts were initiated with 2-5 million cells per injection site implanted subcutaneously into the right and left flanks of 5-8 week old male NOD.CB 17 Scid/J mice (Jackson Labs). Once tumours were palpable in all animals (>50 mm^3 volume by caliper measurements), mice were assigned randomly into biguanide treated or untreated groups and caliper measurements were taken every 3-4 days until tumour burden approached the limits set by institutional guidelines. Tumour volume was assessed according to the formula ½*W*W*L or 4/3*3.14*W/2*L/2*D/2 for large tumors. […] All experiments involving mice were carried out with approval from the Committee for Animal Care at MIT and under supervision of the Department of Comparative Medicine at MIT.

BxPC3 xenografts = assay: Phenformin in drinking water, tumour xenografts; assay type: in vivo, mice; settings: BxPC3 (mtDNA mutations); phenformin 1.7 mg/ml in drinking water
Method: as §3

U-937 xenografts = assay: Phenformin in drinking water, tumour xenografts; assay type: in vivo, mice; settings: U-937 (mtDNA mutations); phenformin 1.7 mg/ml in drinking water
Method: as §3

NCI-H929 xenografts = assay: Phenformin in drinking water, tumour xenografts; assay type: in vivo, mice; settings: NCI-H929 (poor glucose consumption); phenformin 1.7 mg/ml in drinking water
Method: as §3

KMS-26 xenografts = assay: Phenformin in drinking water, tumour xenografts; assay type: in vivo, mice
Method: as §3

Cal-62 xenografts = assay: Phenformin in drinking water, tumour xenografts; assay type: in vivo, mice; settings: Cal-62 (mtDNA mutations); phenformin 1.7 mg/ml in drinking water
Method: as §3

Cal-62 cells = assay: Long term culture of mtDNA mutant cells in phenformin; assay type: cell-based; settings: Cal-62, 1.5 months, 5-20 uM phenformin
Method: Cells were split 1:10 when nearing confluence. […] The ratio of wild type to mutant mtDNA was calculated by summing the 11 Sanger Sequencing peak height measurements per nucleotide position for the wild type and mutant allele allowing for the percent mutant calculated. These values were averaged over three nucleotide positions for which the base in the wild type and mutant sequence differs.

143B Rho cells = assay: Proliferation of cells lacking mtDNA with phenformin; settings: 0.75 mM or 10 mM glucose

SMILES: N#CC(C#N)=NNc1ccc(OC(F)(F)F)cc1 [FCCP, Carbonyl cyanide 4-(trifluoromethoxy)phenylhydrazone]
- increase in OCR upon FCCP ([1]; glucose limitation resistant cell lines): much greater increase in OCR
- increase in OCR upon FCCP ([1]; glucose limitation sensitive cells): only a modest increase

SMILES: CN(C)C(=N)NC(=N)N [metformin, N,N-dimethylimidodicarbonimidic diamide]
- cleaved caspase 3 in tumors compared with vehicle [2]: not observed
- effect on size of tumors compared with vehicle (PBS) [2]: did not affect size of tumors
- cleaved caspase 3 in tumors compared with vehicle [3]: increase in cleaved caspase 3; also recorded: increased level of cleaved caspase 3
- reduction in size of tumors compared with vehicle (PBS) [3]: approximately 50%
- tumor size in metformin treated versus vehicle treated mice [3]: half the size
- sensitivity to metformin (proliferation) of glucose limitation sensitive versus resistant cell lines ([4]; 2 mM metformin, 3 days, 0.75 mM glucose): markedly more sensitive; also recorded: greater inhibitory effects on proliferation
- sensitivity of U937 cells to metformin ([4]; U937 cell line): sensitive
- relation of UQCRC1+CYC1 expression to metformin sensitivity [5]: correlated with sensitivity to metformin; also recorded: increased sensitivity

SMILES: CN(C)c1ccc(O)c2c1C[C@H]1C[C@H]3[C@H](N(C)C)C(O)=C(C(N)=O)C(=O)[C@@]3(O)C(O)=C1C2=O [minocycline, (2E,4S,4aR,5aS,12aR)-2-(amino-hydroxy-methylidene)-4,7-bis(dimethylamino)-10,11,12a-trihydroxy-4a,5,5a,6-tetrahydro-4H-tetracene-1,3,12-trione]
- penetration into organs [6]: greatest penetration into certain organs such as the prostate and brain

SMILES: N=C(N)NC(=N)NCCc1ccccc1 [phenformin, 2-(N-phenethylcarbamimidoyl)guanidine]
- phenformin sensitivity at intermediate glucose ([7]; 1.5-3.0 mM glucose): substantial sensitivity persisted
- sensitivity of BxPC3 cells to phenformin ([7]; BxPC3 pancreatic cancer cell line): sensitive
- effect of GLUT3 over-expression on phenformin sensitivity ([7]; cells with impaired glucose utilization, 0.75 mM glucose): almost completely rescued the phenformin sensitivity
- effect of NDI1 expression on the effects of phenformin on proliferation ([7]; cells with mutations in Complex I, 0.75 mM glucose): almost completely rescued the effects of phenformin
- phenformin sensitivity in 0.75 versus 10 mM glucose ([7]; low glucose sensitive cell lines, particularly those with impaired glucose utilization): more sensitive to phenformin in 0.75 than 10 mM glucose
- effect of NDI1 expression on the effects of phenformin on oxygen consumption [8]: almost completely rescued the effects of phenformin
- effects of phenformin on xenograft growth after introduction of NDI1 [9]: rescued
- growth of tumour xenografts (BxPC3 xenografts): inhibited the growth
- growth of tumour xenografts (U-937 xenografts): inhibited the growth
- growth of tumour xenografts (NCI-H929 xenografts): inhibited the growth
- growth of tumour xenografts (KMS-26 xenografts; KMS-26 (poor glucose consumption), phenformin 1.7 mg/ml in drinking water): inhibited the growth
- effects of phenformin on xenograft growth after over-expression of GLUT3 (KMS-26 xenografts; KMS-26 cells over-expressing GLUT3): rescued
- growth of tumour xenografts (Cal-62 xenografts): inhibited the growth
- sensitivity to low glucose after culture in phenformin (Cal-62 cells): decrease in sensitivity to low glucose
- wild-type mtDNA content after culture in phenformin (Cal-62 cells): significantly enriched wild-type mtDNA content
- sensitivity of cells lacking mtDNA to phenformin (143B Rho cells): insensitive to phenformin
